Read-outs that look alike come from different tables or passages of the source. One block for each compound: values may come before it. Starred links: 1 amine or outer side, 2 acyl side, 3 side chain; linkers in the order of their positions; H or OH if unused. Positions of bridges follow the written chain, without caps; N, C: chain ends. Residues, ends and D or L forms follow the SMILES beside them. Pyridine(2,6-diCH2) = c1cc(C[*:1])nc(C[*:2])c1; TBMB = c1c(C[*:1])cc(C[*:3])cc1C[*:2]; mXylylene = c1cc(C[*:1])cc(C[*:2])c1; pXylylene = c1cc(C[*:2])ccc1C[*:1]
Key:
[1] = test system: U2OS cells; assay: Morphological cell painting assay; assay type: cell-based; settings: Supplemental table 6; cell painting profile similarity to compound 49, U2OS cells
Excerpt: Encouraged by the promising results from the pulldown experiment, and in order to get insight into bioactivity and possible mode of action, we analyzed peptide 33 in a morphological cell painting assay. The cell painting assay is a target agnostic assay which determines a cells morphological profile after treatment with a compound of interest and compares it to the profiles of a set of reference compounds. ^[22] By identifying reference compounds with a similar profile a hypothesis of the compounds mode of action can be generated based on their annotated targets. ^[23] U2OS cells were treated with our compound and 579 parameters were analyzed. […] We therefore synthesized a variant modified with an N‐terminal TAT sequence to enhance its permeability (compound 49, see Table 1 and Supplemental Figure 4). ^[24] […] Applying compound 49 to the cell painting assay led to an induction of 5.9 % and the corresponding profile was compared to the set of 3000 reference compounds. […] To validate this hypothesis, we exposed U2OS cells to compound 49 and evaluated the levels of p53 by Western blot. […] The exact mechanism by which the compounds elevate levels of p53 requires further investigation. However, it has previously been shown that the NuRD complex, of which RbAp48 is a core component, is able to deacetylate p53 and thereby modulate its stability. ^[26] The effect is mediated by the MTA family of proteins from which the compounds described here are derived. […]
The described assay follows closely the method described by Bray et al. Initially, 5 µl U2OS medium were added to each well of a 384 -well plate (PerkinElmer CellCarrier -384 Ultra). Subsequently, U2OS cell were seeded with a density of 1600 cells per well in 20 µl medium. The plate was incubated for 10 min at the ambient temperatu re, followed by an a dditional 4 h incubation (37 °C, 5 % CO2). Compound treatment was performed with the Echo 520 acoustic dispenser (Labcyte) at final concentrations of 10 µM, 3 µM or 1 µM. Incubation with compound was performed for 20 h (37 °C, 5 % CO2). Subsequently, mitoc hondria were stained with Mito Tracker Deep Red (Thermo Fisher Scientific, Cat. No. M22426). The Mito Tracker Deep Red stock solution (1 mM) was diluted to a final concentration of 100 nM in prewarmed medium. The medium was removed fr om the plate leaving 1 0 µl residual volume and 25 µl of the Mito Tracker solution were added to each well. 22 The plate was incubated for 30 min in darkness (37 °C, 5 % CO2). To fix the cells 7 µl of 18.5 % formaldehyde in PBS were added, resulting in a fi nal formaldehyde conce ntration of 3.7 %. Subsequently, the plate was incubated for another 20 min in darkness (RT) and washed three times with 70 µl of PBS. (Biotek Washer Elx405). Cells were permeabilized by addition of 25 µl 0.1 % Triton X -100 to each well, followed by 15 min incubation (RT) in darkness. The cells were washed three times with PBS leaving a final volume of 10 µl. To each well 25 µl of a staining solution were added, which contains 1 % BSA, 5 µl/mL Phalloidin (Thermo Fisher Scientific, A123 81), 25 µg/ml Concanav alin A (Thermo Fisher Scientific, Cat. […]
conjugate (Thermo Fisher Scientific, Cat. No. W11262) and […] SYTO 14 solution (Thermo Fisher Scientific, Cat. No. S7576). The plate is incubated for 30 min (RT) in darkness and washed three times with 70 µl PBS. After the final washing step the PBS was not aspirated. The plates were sealed and centrifuged for 1 min at 500 rpm.
The plates were prepare d in triplicates with shifted layouts to reduce plate effects and imaged using a Micro XL High-Content Screening System (Molecular Devices) in 5 channels (DAPI: Ex350 -400/ Em410- […]
The generated images were processed with the CellProfiler package (https://cellprofiler.org/, version 3.0.0) on a computing cluster of the Max Planck Society to extract 1716 cell features (parameters) per microscope site. The data was then further aggregated as medians per well (9 sites -> 1 well), then […]

[2] = Peptide stability in MDA-MB-231 whole cell lysate; assay type: in vitro ADME; settings: human, 37°C, HPLC, duplicate
Description: To investigate whether the cyclization strategy influences the stability of the peptides we incubated 3, 8 and 33 in MDA‐MB‐231 cell lysate. […]
Fluorescence polarization assay […]
Isothermal Titration Calorimetry […]
Peptide stability was tested in whole cell lysate prepared from MDA-MB-231 cells using the freeze-thaw method. Peptides were dissolved in lysate (normalized to 5mg/ml protein using PBS) at 600 µM and incubated at 37°C. Samples were taken at different time points and mixed with an equal amount of MeOH containing 0.05 mg/ml ethylparaben as an i nternal standard. The samples were mixed and kept on ice for 15 minutes before centrifugation at 14000 rpm at 4 °C for 10 min. The supernatant was carefully removed and analyzed by HPLC. Peptide peaks were integrated and surface areas compared […]
Measurements were performed in duplicate.

[3] = molecular target: RbAp48 (Homo sapiens, UniProt Q09028); assay: Competitive fluorescence polarization (FP) assay using complex of peptide 1 and RbAp48; assay type: binding; design: Full length RbAp48 was cloned; His tag followed by 3C cleavage site (N, cleaved yes); made in house; host or cells: Sf9 insect cells; settings: for IC50: competitive FP, RbAp48 15 nM, read-out: IC50
How it was run: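 Sf9-expressed full-length RbAp48 (tag cleaved), 15 nM, displaced from 1 nM fluorescent peptide tracer in 20 mM Tris-HCl pH 7.5, 150 mM NaCl, 0.01% Tween-20. Read by FP (ex 485/em 535 nm) after 30 min at room temperature.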

[4] = Table 1, tracer peptide 1 1 nM, 20 mM Tris-HCl, 150 mM NaCl, 0.01% Tween-20, pH 7.5, 30 min room temperature, lower limit set by 15 nM protein
[5] = Supplemental Table 2, tracer 1 nM, pH 7.5, 30 min room temperature

Sequence of RbAp48 (Q09028 whole entry): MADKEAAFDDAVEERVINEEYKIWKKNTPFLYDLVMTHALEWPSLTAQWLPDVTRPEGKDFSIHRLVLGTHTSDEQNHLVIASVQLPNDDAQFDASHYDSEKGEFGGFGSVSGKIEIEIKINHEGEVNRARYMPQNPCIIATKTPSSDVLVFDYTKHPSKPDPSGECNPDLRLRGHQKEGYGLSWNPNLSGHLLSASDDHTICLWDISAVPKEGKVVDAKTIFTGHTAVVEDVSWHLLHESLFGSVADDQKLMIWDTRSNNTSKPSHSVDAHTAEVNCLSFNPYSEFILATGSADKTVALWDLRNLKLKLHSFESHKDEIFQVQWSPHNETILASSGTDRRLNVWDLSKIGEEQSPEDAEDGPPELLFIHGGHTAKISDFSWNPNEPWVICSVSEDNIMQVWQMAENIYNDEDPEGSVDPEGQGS

Compound: CC(C)(C)C[C@@H]1N[C@@H](C(=O)N[C@H]2CC[C@H](O)CC2)[C@H](c2cccc(Cl)c2F)[C@]12C(=O)Nc1cc(Cl)ccc12 [MI-773]
Biosimilarity (%) [1]: 73.0%

Compound: CC(=O)N1CCN(c2ccc(OCC3COC(Cn4ccnc4)(c4ccc(Cl)cc4Cl)O3)cc2)CC1 (centres unmarked) [Ketoconazole]
Biosimilarity (%) [1]: 61.9%

Compound: NS(=O)(=O)OC[C@@H]1C[C@@H](n2ccc3c(N[C@H]4CCc5ccccc54)ncnc32)C[C@@H]1O [Pevonedistat]
Biosimilarity (%) [1]: 63.6%

Compound: CCN(CC)CCNC(=O)c1c(C)[nH]c(/C=C2\C(=O)Nc3ccc(F)cc32)c1C [Sunitinib]
Biosimilarity (%) [1]: 63.5%

Compound: PFI-5
Biosimilarity (%) [1]: 65.1%

Compound: COc1cc2nc(N3CCCN(C)CC3)nc(NC3CCN(Cc4ccccc4)CC3)c2cc1OC [BIX01294]
Biosimilarity (%) [1]: 64.9%

half-life at 600 µM ([2]; MDA-MB-231 whole cell lysate (freeze-thaw), 5 mg/ml protein in PBS, peptide 600 µM, read-out: t 1/2 (half-life)): 16 min
remaining at 5 min, 600 µM ([2]; T 5 min, MDA-MB-231 whole cell lysate 5 mg/ml protein, 600 µM, read-out: % left): 67.5%
remaining at 0.25 h, 600 µM ([2]; T 15 min, MDA-MB-231 whole cell lysate 5 mg/ml protein, 600 µM, read-out: % left): 49.2%
remaining at 1 h, 600 µM ([2]; T 60 min, MDA-MB-231 whole cell lysate 5 mg/ml protein, 600 µM, read-out: % left): 0%
IC50 [3, 4]: 2.62 ± 0.786 µM
Compound: CC[C@H](C)[C@H](NC(=O)[C@@H]1CCCN1C(=O)[C@H](CCCCN)NC(=O)[C@H](Cc1ccc(O)cc1)NC(=O)[C@@H]1CCCN1C(=O)[C@H](CCCNC(=N)N)NC(=O)[C@H](CCCNC(=N)N)NC(=O)[C@H](C)NC(=O)[C@H](C)NC(=O)[C@H](CCCNC(=N)N)NC(=O)[C@H](CCCCN)NC(=O)[C@@H](NC(=O)[C@H](CCC(=O)O)NC(C)=O)[C@@H](C)O)C(=O)N[C@@H](C)C(N)=O [Peptide 3] (Ac-ETKRAARRPYKPIA-NH2)

IC50 [3, 5]: 0.303 ± 0.0859 µM
Compound: CC(=O)N[C@H]1CSCc2ccc(cc2)CSC[C@@H](C(=O)N[C@@H](C)C(N)=O)NC(=O)[C@@H]2CCCN2C(=O)[C@H](CCCCN)NC(=O)[C@H](Cc2ccc(O)cc2)NC(=O)[C@@H]2CCCN2C(=O)[C@H](CCCNC(=N)N)NC(=O)[C@H](CCCNC(=N)N)NC(=O)[C@H](C)NC(=O)[C@H](C)NC(=O)[C@H](Cc2c[nH]cn2)NC(=O)[C@H](CCCCN)NC(=O)[C@H]([C@@H](C)O)NC1=O [Peptide 25] (Ac-CTKHAARRPYKPCA-NH2; linker 1-13 via pXylylene)

IC50 [3, 5]: 0.025 ± 0.0073 µM
FP activity in words ([3]; competitive FP assay): IC50 values similar to those of 7 and 8
Compound: CC(=O)N[C@H]1CSCc2ccc(cc2)CSC[C@@H](C(=O)N[C@@H](C)C(N)=O)NC(=O)[C@@H]2CCCN2C(=O)[C@H](CCCCN)NC(=O)[C@H](Cc2ccc(O)cc2)NC(=O)[C@@H]2CCCN2C(=O)[C@H](CCCNC(=N)N)NC(=O)[C@H](CCCNC(=N)N)NC(=O)[C@H](C)NC(=O)[C@H](C)NC(=O)[C@H](CCCNC(=N)N)NC(=O)[C@H](CCCCN)NC(=O)[C@@H]2CCCN2C1=O [Peptide 21] (Ac-CPKRAARRPYKPCA-NH2; linker 1-13 via pXylylene)

IC50 [3, 4]: 0.0383 ± 0.0019 µM
Compound: CC(=O)N[C@H]1CSCc2cc3cc(c2)CSC[C@@H](C(=O)N[C@@H](C)C(N)=O)NC(=O)[C@@H]2CCCN2C(=O)[C@H](CCCCN)NC(=O)[C@H](C)NC(=O)[C@@H]2CCCN2C(=O)[C@H](CCCNC(=N)N)NC(=O)[C@H](CCCNC(=N)N)NC(=O)[C@H](C)NC(=O)[C@H](CSC3)NC(=O)[C@H](CCCNC(=N)N)NC(=O)[C@H](CCCCN)NC(=O)[C@H]([C@@H](C)O)NC1=O [Peptide 43] (Ac-CTKRCARRPAKPCA-NH2; linker 1-5-13 via TBMB)

IC50 [3, 4]: 0.0349 ± 0.014 µM
Compound: CC(=O)N[C@H]1CSCc2cccc(n2)CSC[C@@H](C(=O)N[C@@H](C)C(N)=O)NC(=O)[C@@H]2CCCN2C(=O)[C@H](CCCCN)NC(=O)[C@H](Cc2ccc(O)cc2)NC(=O)[C@@H]2CCCN2C(=O)[C@H](CCCNC(=N)N)NC(=O)[C@H](CCCNC(=N)N)NC(=O)[C@H](C)NC(=O)[C@H](C)NC(=O)[C@H](CCCNC(=N)N)NC(=O)[C@H](CCCCN)NC(=O)[C@H]([C@@H](C)O)NC1=O [Peptide 9] (Ac-CTKRAARRPYKPCA-NH2; linker 1-13 via Pyridine(2,6-diCH2))

IC50 [3, 5]: > 10 µM
Compound: CC(=O)N[C@H]1CSCc2cccc(c2)CSC[C@@H](C(=O)N[C@@H](CC(N)=O)C(N)=O)NC(=O)[C@@H]2CCCN2C(=O)[C@H](CC(C)C)NC(=O)[C@H](Cc2ccc(O)cc2)NC(=O)[C@@H]2CCCN2C(=O)[C@H](Cc2c[nH]cn2)NC(=O)[C@H](CCCNC(=N)N)NC(=O)[C@H](C)NC(=O)[C@H](C)NC(=O)[C@H](Cc2c[nH]cn2)NC(=O)[C@H](Cc2c[nH]c3ccccc23)NC(=O)[C@@H]2CCCN2C1=O [Peptide 18] (Ac-CPWHAARHPYLPCN-NH2; linker 1-13 via mXylylene)
